Data: PubChem BioAssay (NCI)
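Interpolation was linear, between the two tested concentrations surrounding the appropriate level; five concentrations were tested over 48 hours in 96-well plates. TGI marks complete inhibition of growth.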 Where a SMILES comes first, the peptide text is derived from it. The star is where a group is joined. Boc = CC(C)(C)OC(=O)*; nBu = CCCC*

Columns and labels:
Assay in all cases: growth of human tumour cells (NCI), 48 h
[1] = system: 786-0 renal
[2] = system: A498 renal
[3] = system: A549 NSCLC
[4] = system: ACHN renal
[5] = system: BT-549 breast
[6] = system: CAKI-1 renal
[7] = system: CCRF-CEM leukemia
[8] = system: COLO 205 colon
[9] = system: DU-145 prostate
[10] = system: HCC-2998 colon
[11] = system: HCT-116 colon
[12] = system: HCT-15 colon
[13] = system: HL-60(TB) leukemia
[14] = system: HOP-62 NSCLC
[15] = system: HOP-92 NSCLC
[16] = system: HS 578T breast
[17] = system: HT29 colon
[18] = system: IGROV1 ovarian
[19] = system: K-562 leukemia
[20] = system: KM12 colon
[21] = system: LOX IMVI melanoma
[22] = system: M14 melanoma
[23] = system: MALME-3M melanoma
[24] = system: MCF7 breast
[25] = system: MDA-MB-231 breast
[26] = system: MDA-MB-435
[27] = system: MDA-N
[28] = system: MOLT-4 leukemia
[29] = system: NCI-H226 lung
[30] = system: NCI-H23 lung
[31] = system: NCI-H460 lung
[32] = system: NCI-H522 lung
[33] = system: NCI/ADR-RES ovarian
[34] = system: OVCAR-3 ovarian
[35] = system: OVCAR-4 ovarian
[36] = system: OVCAR-5 ovarian
[37] = system: OVCAR-8 ovarian
[38] = system: PC-3 prostate
[39] = system: RPMI-8226 leukemia
[40] = system: RXF 393 renal
[41] = system: SF-268 CNS
[42] = system: SF-295 CNS
[43] = system: SF-539 CNS
[44] = system: SK-MEL-2 melanoma
[45] = system: SK-MEL-28 melanoma
[46] = system: SK-MEL-5 melanoma
[47] = system: SK-OV-3 ovarian
[48] = system: SN12C renal
[49] = system: SNB-19 CNS
[50] = system: SNB-75 CNS
[51] = system: SW-620 colon
[52] = system: T-47D breast
[53] = system: TK-10 renal
[54] = system: U251 CNS
[55] = system: UACC-257 melanoma
[56] = system: UACC-62 melanoma
[57] = system: UO-31 renal
[58] = system: EKVX NSCLC
[59] = system: SR leukemia

Measured: TGI

CCCCOc1ccc(CC(NC(=O)OC(C)(C)C)C(=O)NC(C)C(=O)NC(Cc2ccccc2)C(=O)NCC(N)=O)cc1 (configuration not stated) (Boc-Y(nBu)AFG-NH2; configuration not given here)
53.3 µM: [28]
51 µM: [44]
not listed: [58] | [59]
> 100 µM: all other assays above

O=[N+]([O-])c1ccc(N=Nc2c(O)[nH]c3ccccc23)c([N+](=O)[O-])c1
28.8 µM: [1]
25.1 µM: [42]
25.8 µM: [30]
36.6 µM: [57]
38.8 µM: [48]
30.1 µM: [9]
27.8 µM: [37]
29.9 µM: [25]
43.9 µM: [6]
50.2 µM: [36]
47.8 µM: [54]
20.7 µM: [58] | [21]
28 µM: [3]
52.8 µM: [52]
13.9 µM: [34]
30.7 µM: [35]
32.4 µM: [47]
12.5 µM: [15]
34.1 µM: [5]
44.1 µM: [10]
57.9 µM: [12]
81.7 µM: [17]
10.2 µM: [43]
37.4 µM: [31]
79.4 µM: [2]
24.2 µM: [14] | [18]
75.5 µM: [29]
51 µM: [49]
27.4 µM: [53]
71.2 µM: [8]
19.2 µM: [4]
31.5 µM: [40]
59.9 µM: [33]
34.6 µM: [55]
80.7 µM: [24]
49.7 µM: [11]
72.3 µM: [50]
not listed: [23] | [44]
> 100 µM: all other assays above

O=NNc1ccc(S(=O)(=O)c2ccc3ccccc3c2)cn1
58.4 µM: [57]
not listed: [10] | [15] | [21] | [26] | [28] | [39] | [40]
> 100 µM: all other assays above

CN(N=O)c1nc2c(C(N)=O)ncn2s1
not listed: [13]
> 100 µM: all other assays above

COc1cc(N(C)C)c(OC)cc1C=C1C=CC=C1
not listed: [6] | [8] | [12] | [21] | [32] | [35] | [39] | [50] | [55]
> 100 µM: all other assays above

CN1CCC(C(O)(c2ccccc2)c2ccc(Br)cc2)CC1 (configuration not stated)
51.9 µM: [17]
91.5 µM: [50]
66.5 µM: [13]
45.8 µM: [39]
30.4 µM: [32]
44.3 µM: [48]
45.7 µM: [42]
43.1 µM: [54]
28.2 µM: [27]
51.1 µM: [11]
70.4 µM: [15]
30.3 µM: [44]
47.6 µM: [59]
30.1 µM: [56]
29.7 µM: [55]
35.9 µM: [19]
28.7 µM: [8] | [22]
25.1 µM: [10]
83.8 µM: [14]
32.9 µM: [21]
33.1 µM: [57]
98.7 µM: [53]
27.5 µM: [1]
48.8 µM: [25]
32.2 µM: [43]
27.9 µM: [46]
35.1 µM: [45]
27.6 µM: [23]
30.7 µM: [26]
62.5 µM: [31]
61.1 µM: [51]
64.4 µM: [40]
61.3 µM: [28]
78.3 µM: [52]
43.2 µM: [20]
59.5 µM: [29]
93.3 µM: [36]
64.2 µM: [24]
not listed: [2]
> 100 µM: all other assays above

Nc1ncc2ncn(C3CCC(CO)O3)c2n1 (configuration not stated)
not listed: [10] | [15] | [23] | [40]
> 100 µM: all other assays above
